The values below come from ChEMBL document CHEMBL1949559, “Discovery of a new class of potent prolylcarboxypeptidase inhibitors derived from alanine” (Bioorg Med Chem Lett, 2012).

Where only a bound is given, the exact number is not on record here.

The target in series [1] is T1, Lysosomal Pro-X carboxypeptidase (Mus musculus, UniProt Q7TMR0).
T1 sequence (Q7TMR0 whole entry): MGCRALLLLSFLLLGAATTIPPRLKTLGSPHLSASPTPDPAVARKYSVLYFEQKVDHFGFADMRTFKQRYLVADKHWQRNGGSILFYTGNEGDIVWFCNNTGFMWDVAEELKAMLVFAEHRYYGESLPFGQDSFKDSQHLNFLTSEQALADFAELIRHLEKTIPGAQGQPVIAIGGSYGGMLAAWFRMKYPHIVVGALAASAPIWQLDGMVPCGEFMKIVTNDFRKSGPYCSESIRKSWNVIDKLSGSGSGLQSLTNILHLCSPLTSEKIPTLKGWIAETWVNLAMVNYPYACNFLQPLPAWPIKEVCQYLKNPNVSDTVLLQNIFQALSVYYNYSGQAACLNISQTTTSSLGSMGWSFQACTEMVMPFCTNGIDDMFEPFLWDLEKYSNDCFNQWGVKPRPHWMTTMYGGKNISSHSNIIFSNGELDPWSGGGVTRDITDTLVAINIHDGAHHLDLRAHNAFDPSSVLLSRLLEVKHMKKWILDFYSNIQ
In words: Inhibition of PrCP-mediated angiotensin3 cleavage in mouse plasma using exogenous angiotensin III as substrate for 8 mins by LC/MS analysis.

Series [2] concerns the target T2, Lysosomal Pro-X carboxypeptidase (Homo sapiens, UniProt P42785).
T2 sequence (P42785 whole entry): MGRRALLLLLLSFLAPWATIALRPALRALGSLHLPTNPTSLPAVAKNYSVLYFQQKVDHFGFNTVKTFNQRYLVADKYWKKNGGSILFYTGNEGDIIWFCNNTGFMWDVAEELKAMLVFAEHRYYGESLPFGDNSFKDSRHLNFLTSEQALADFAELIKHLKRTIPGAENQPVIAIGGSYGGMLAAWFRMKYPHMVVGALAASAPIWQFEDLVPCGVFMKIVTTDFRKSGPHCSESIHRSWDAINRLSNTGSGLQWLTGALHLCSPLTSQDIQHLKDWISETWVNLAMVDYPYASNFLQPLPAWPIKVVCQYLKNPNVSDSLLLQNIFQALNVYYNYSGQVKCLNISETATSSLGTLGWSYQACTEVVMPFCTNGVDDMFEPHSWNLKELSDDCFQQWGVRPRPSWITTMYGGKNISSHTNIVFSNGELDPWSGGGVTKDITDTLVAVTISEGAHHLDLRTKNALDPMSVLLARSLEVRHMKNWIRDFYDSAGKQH
Put plainly: Inhibition of human recombinant PrCP using Mca-Ala-Pro-Lys(Dnp)-OH as substrate for 30 mins by continuous fluorimetric assay.

Series [3] concerns the target T3, Lysosomal Pro-X carboxypeptidase (Homo sapiens) (UniProt P42785).
T3 sequence (whole entry): T2 sequence (P42785 whole entry)
Put plainly: Inhibition of human recombinant PrCP using Mca-Ala-Pro-Lys(Dnp)-OH as substrate at 5 uM for 30 mins by continuous fluorimetric assay.

For series [4], the target named is T3, Lysosomal Pro-X carboxypeptidase (Homo sapiens). Put plainly: Inhibition of human recombinant PrCP using Mca-Ala-Pro-Lys(Dnp)-OH as substrate at 0.5 uM for 30 mins by continuous fluorimetric assay.
The subject of another series is Mus musculus. In words: Dose normalized AUC in mouse at 2 mg/kg, po. More on the design: dose 2 mg/kg, route oral. The format is ADME, organism-based. To be noted: in vivo.
The nature of series [5]: Half life in mouse at 1 mg/kg, iv and 2 mg/kg, po. The note with it: in vivo. In kind it is ADME, organism-based.
A short description of series [6]: Oral bioavailability in mouse at 2 mg/kg. In kind it is ADME, organism-based. The note with it: in vivo.
The nature of series [7]: Volume of distribution at steady state in mouse at 1 mg/kg, iv and 2 mg/kg, po. The format is ADME, organism-based. To be noted: in vivo, read-out: Vdss.
Series [8] can be described thus: Clearance in mouse at 1 mg/kg, iv and 2 mg/kg, po. The format is ADME, organism-based. To be noted: in vivo.
The target of series [9] is T1, Lysosomal Pro-X carboxypeptidase. Put plainly: Inhibition of mouse recombinant PrCP using Mca-Ala-Pro-Lys(Dnp)-OH as substrate for 30 mins by continuous fluorimetric assay.

As usually defined, the IC50 is the concentration at which inhibition is half-maximal. Take `C[C@H](NC(=O)[C@@H](NC(=O)C(C)(C)N)[C@@H](C)c1ccc(OCC(F)(F)F)cc1)c1nc2cc(Cl)c(Cl)cc2[nH]1`: in series [1], the midpoint of inhibition, the IC50, lay at 92 nM.
As for `O=C(CCc1ccc(-c2ccccc2)cc1)NCc1nc2cc(Cl)c(Cl)cc2[nH]1`, the 50% inhibitory concentration (IC50) in series [2] was above 10000 nM.
As a reminder, the inhibition is how much of the control response was suppressed. Take `O=C(CCCOc1ccccc1)N[C@@H](Cc1ccccc1)c1ncc(-c2ccc(F)cc2)[nH]1`: the results for the inhibition in series [3] and in series [4] were 13% and 3%, respectively.
`C[C@H](NC(=O)[C@@H](NC(=O)C(C)(C)O)[C@@H](C)c1ccc(OCC(F)(F)F)cc1)c1nc2cc(Cl)c(Cl)cc2[nH]1` showed a half-maximal inhibitory concentration (IC50) in series [1] of 45 nM.
On the same count and under the same terms, then `C[C@H](NC(=O)[C@H](Cc1ccc(-c2ccccc2)cc1)NCC(C)(C)N)c1nc2cc(Cl)c(Cl)cc2[nH]1`, with 585 nM.
Regarding `Clc1cc2nc(-c3cccnc3NCCc3ccc(-c4ccccc4)cc3)[nH]c2cc1Cl`, the IC50 in [2] is above 10000 nM.
Consider `COc1cccc(-c2cnc(C(NC(=O)CCCOc3ccccc3)C3CCCCC3)[nH]2)c1` (configuration not stated), for which the inhibition in series [3] came out at 31%; in series [4] it was 7%.
In general, half-life refers to the time needed for the level to fall by half in the phase considered. By bioavailability is commonly meant dose-corrected exposure relative to a reference, in per cent. In the case of `C[C@H](NC(=O)[C@@H](NC(=O)C(C)(C)N)[C@@H](C)c1ccc(-c2ccccc2)cc1)c1nc2cc(Cl)c(Cl)cc2[nH]1`, in the series on Mus musculus, the AUC/dose was 0.52 µM·kg·h/mg. The half-life in series [5] is 4 h. For the same molecule, the IC50 was found to be 22 nM in series [1] and 0.039 nM in series [9]. In series [6], this molecule had a bioavailability of 17%. For the same molecule, the Vd in series [7] came out at 14 L/kg. In [8], this molecule had a clearance of 58 mL/min/kg.
As to `C[C@H](NC(=O)[C@H](Cc1cccc(C#N)c1)NC(=O)C(C)(C)N)c1nc2cc(Cl)c(Cl)cc2[nH]1`, the figures for the IC50 in series [1] and in [9] were 1600 nM and 128 nM, respectively.
As to `C[C@H](NC(=O)[C@@H](NC(=O)C(C)(C)O)[C@@H](C)c1ccc(-c2cn[nH]c2)cc1)c1nc2cc(Cl)c(Cl)cc2[nH]1`, in [1], the IC50 worked out at 78 nM.
Same read-out and setting: the figure for `C[C@H](NC(=O)CCN1CCN(c2ccc(F)cc2)CC1)c1nc2cc(Cl)c(Cl)cc2[nH]1` is 20000 nM.
Same read-out and setting: the figure for `C[C@H](NC(=O)[C@@H](N)Cc1cccc(C#N)c1)c1nc2cc(Cl)c(Cl)cc2[nH]1` is 5000 nM.
Consider `COc1cccc(-c2cnc([C@H](C)NC(=O)CCCOc3ccccc3)[nH]2)c1`, for which the inhibition was found to be 90% in series [3] and 65% in series [4].
`CC(C)(NC(=O)CCN1CCC(c2ccccc2)CC1)c1nc2cc(Cl)c(Cl)cc2[nH]1`: the IC50 in [2] was 181 nM.
In [1], `C[C@H](NC(=O)CCN1CCN(c2cccc(F)c2)CC1)c1nc2cc(Cl)c(Cl)cc2[nH]1` returned an IC50 of 5000 nM.
Consider `CC(C)(C)OC(=O)N[C@@H](Cc1ccc(-c2ccccc2)cc1)C(=O)N1CCCC[C@H]1c1nc2cc(Cl)c(Cl)cc2[nH]1`, for which the IC50 in series [2] is above 10000 nM.
Turning to `Clc1cc2nc(-c3cccnc3OCCc3ccc(-c4ccccc4)cc3)[nH]c2cc1Cl`, in series [2], the IC50 is above 10000 nM.
